Consider 1 compound from US20080103045A1, “Preparation For Eradicating Algae And Microorganisms In Aqueous Environment” (LIFETECH S.R.O., priority 2005, published 2008).

Test systems include Raphidocelis subcapitata; Scenedesmus quadricauda; Chlorella kessleri; Mycrocystis incerta; Anabaena sp.
Holding throughout (conditions): effective concentration of copper cations
Experiment [1] relates to Synechococcus leopoliensis.

For the compound `O=S(=O)([O-])[O-].[Cu+2]` [copper sulfate], the “EC50 (mg/l Cu(II))” value was 1.27 mg/l Cu(II) with Raphidocelis subcapitata; 1.15 mg/l Cu(II) with Scenedesmus quadricauda; 1.14 mg/l Cu(II) in the experiment with Chlorella kessleri; 1.26 mg/l Cu(II) in experiment [1]; 1.26 mg/l Cu(II) with Mycrocystis incerta; 0.50 mg/l Cu(II) with Anabaena sp..
